Results reported in patent US4515941A, “23-Demycinosyldesmycosin derivatives” (Toyo Jozo Kabushiki Kaisha, priority 1982, dated 1985).
Converted amounts (≈) assume the structure as drawn. Read-outs that look alike come from different tables or passages of the source.

Tests used:
Assay type in all cases: cell-based
[1] = tested on: Staphylococcus aureus ATCC 6538P; test: MIC, Staphylococcus aureus ATCC 6538P; conditions: ATCC6538P, read-out: MIC
[2] = tested on: Staphylococcus aureus MS353; test: MIC, Staphylococcus aureus MS353; conditions: Staphylococcus aureus MS353; read-out: MIC
[3] = tested on: Staphylococcus aureus MS353 C36; test: MIC, Staphylococcus aureus MS353 C36; conditions: MS353C36
[4] = tested on: Staphylococcus aureus MS353 A0; test: MIC, Staphylococcus aureus MS353 A0 (macrolide resistant); conditions: MS353A0, macrolide resistant bacteria A group
Excerpt: (§1) *macrolide resistant bacteria A group (clinical isolates of erythromycin,
(§2) oleandomycin and 16membered macrolide antibiotic resistant strains.)

[5] = tested on: Staphylococcus aureus 0119; test: MIC, Staphylococcus aureus 0119 (macrolide resistant); conditions: macrolide resistant bacteria A group
Excerpt: as §1, §2

[6] = tested on: Staphylococcus aureus 0127; test: MIC, Staphylococcus aureus 0127 (macrolide resistant)
Excerpt: as §1, §2

[7] = tested on: Staphylococcus epidermis sp-al-1; test: MIC, Staphylococcus epidermis sp-al-1; conditions: SPAL1; Staphylococcus epidermis sp-al-1; read-out: MIC
[8] = tested on: Streptococcus pyogenes N.Y.5; test: MIC, Streptococcus pyogenes N.Y.5; conditions: read-out: MIC
[9] = tested on: Streptococcus pyogenes 1022; test: MIC, Streptococcus pyogenes 1022 (macrolide resistant); conditions: macrolide resistant bacteria A group
Excerpt: as §1, §2

[10] = tested on: Streptococcus faecalis 1501; test: MIC, Streptococcus faecalis 1501; conditions: Enterococcus faecalis; Streptococcus faecalis 1501; read-out: MIC
[11] = tested on: Streptococcus agalactiae 1020; test: MIC, Streptococcus agalactiae 1020; conditions: Streptococcus agalactiae 1020; read-out: MIC
Sarcina lutea ATCC 9341 = test: MIC, Sarcina lutea ATCC 9341; conditions: Micrococcus luteus, ATCC9341
[12] = tested on: Micrococcus flavus ATCC 10240; test: MIC, Micrococcus flavus ATCC 10240; conditions: ATCC10240; Micrococcus flavus ATCC 10240; read-out: MIC
[13] = tested on: Corynebacterium diptheriae P.Y.8; test: MIC, Corynebacterium diptheriae P.Y.8; conditions: Corynebacterium diptheriae P.Y.8; read-out: MIC
[14] = tested on: Bacillus subtilis ATC 6633; test: MIC, Bacillus subtilis ATC 6633; conditions: ATC6633; Bacillus subtilis ATC 6633; read-out: MIC
[15] = tested on: Escherichia coli NIHJ-JC2; test: MIC, Escherichia coli NIHJ-JC2; conditions: NIHJJC2
Escherichia coli B = test: MIC, Escherichia coli B
[16] = tested on: Klebsiella pneumoniae ATCC 10031; test: MIC, Klebsiella pneumoniae ATCC 10031; conditions: ATCC10031; Klebsiella pneumoniae ATCC 10031; read-out: MIC
Salmonella typhosa H901 = test: MIC, Salmonella typhosa H901; conditions: Salmonella enterica, TYPHOSA
[17] = tested on: Salmonella enteritidis Gaertner; test: MIC, Salmonella enteritidis Gaertner; conditions: Salmonella enterica; Salmonella enteritidis Gaertner; read-out: MIC
[18] = tested on: Shigella flexineri type 3a; test: MIC, Shigella flexineri type 3a; conditions: TYPE3A
Shigella sonnei E33 = test: MIC, Shigella sonnei E33
Proteus vulgaris OX19 = test: MIC, Proteus vulgaris OX19; conditions: Proteus vulgaris OX19; read-out: MIC
Serratia marcescens = test: MIC, Serratia marcescens; conditions: read-out: MIC
[19] = tested on: Pseudomonas aeruginosa IAM 1095; test: MIC, Pseudomonas aeruginosa IAM 1095; conditions: IAM1095; Pseudomonas aeruginosa IAM 1095; read-out: MIC
[20] = Streptococcus pyogenes 1022, read-out: MIC
[21] = Staphylococcus aureus 0127, macrolide resistant bacteria A group, read-out: MIC

Row | SMILES | MIC [1] [µg/mL] | MIC [2] [µg/mL] | MIC [3] [µg/mL] | MIC [4] [µg/mL] | MIC [5] [µg/mL] | MIC [7] [µg/mL] | MIC [8] [µg/mL] | MIC [10] [µg/mL] | MIC [11] [µg/mL] | MIC (Sarcina lutea ATCC 9341) [µg/mL] | MIC [12] [µg/mL] | MIC [13] [µg/mL] | MIC [14] [µg/mL] | MIC [15] [µg/mL] | MIC (Escherichia coli B) [µg/mL] | MIC [16] [µg/mL] | MIC (Salmonella typhosa H901) [µg/mL] | MIC [17] [µg/mL] | MIC [18] [µg/mL] | MIC (Shigella sonnei E33) [µg/mL] | further results
1 | CCC1OC(=O)CC(O)C(C)C(OC2OC(C)C(O)C(N(C)C)C2O)C(CC=O)CC(C)C(=O)C=CC(C)=CC1COc1ccc(Cl)cc1Cl (stereo not drawn) | 0.2 (≈ 0.269 µM) | 0.2 (≈ 0.269 µM) | 0.1 (≈ 0.135 µM) | 12.5 (≈ 16.8 µM) | 25 (≈ 33.7 µM) | ≤ 0.05 | ≤ 0.05 | 0.1 (≈ 0.135 µM) | ≤ 0.05 | ≤ 0.05 | ≤ 0.05 | ≤ 0.05 | 0.1 (≈ 0.135 µM) | > 100 | > 100 | 3.1 (≈ 4.17 µM) | > 100 | > 100 | 25 (≈ 33.7 µM) | > 100 | MIC ([6]; Staphylococcus aureus, 0127): 12.5 µg/mL (≈ 16.8 µM); MIC [9, 20]: 6.3 µg/mL (≈ 8.48 µM); MIC (Proteus vulgaris OX19): 25 µg/mL (≈ 33.7 µM); MIC (Serratia marcescens): 25 µg/mL (≈ 33.7 µM); MIC [19]: > 100 µg/mL
2 | CCC1OC(=O)CC(O)C(C)C(OC2OC(C)C(O)C(N(C)C)C2O)C(CC=O)CC(C)C(=O)C=CC(C)=CC1COc1ccc(Br)cc1 (stereo not drawn) | 0.1 (≈ 0.133 µM) | 0.2 (≈ 0.266 µM) | 0.2 (≈ 0.266 µM) | 25 (≈ 33.2 µM) | 25 (≈ 33.2 µM) | 0.1 (≈ 0.133 µM) | ≤ 0.05 | 0.2 (≈ 0.266 µM) | ≤ 0.05 | ≤ 0.05 | ≤ 0.05 | ≤ 0.05 | 0.2 (≈ 0.266 µM) | 100 (≈ 133 µM) | 25 (≈ 33.2 µM) | 3.1 (≈ 4.12 µM) | > 100 | > 100 | 12.5 (≈ 16.6 µM) | 100 (≈ 133 µM) | MIC [6, 21]: 25 µg/mL (≈ 33.2 µM); MIC ([9]; Streptococcus pyogenes, 1022, Streptococcus pyogenes 1022): 12.5 µg/mL (≈ 16.6 µM); MIC (Proteus vulgaris OX19): 25 µg/mL (≈ 33.2 µM); MIC (Serratia marcescens): 50 µg/mL (≈ 66.4 µM); MIC [19]: > 100 µg/mL
3 | CCC1OC(=O)CC(O)C(C)C(OC2OC(C)C(O)C(N(C)C)C2O)C(CC=O)CC(C)C(=O)C=CC(C)=CC1COc1cccc([N+](=O)[O-])c1 (stereo not drawn) | 0.1 (≈ 0.139 µM) | 0.1 (≈ 0.139 µM) | 0.1 (≈ 0.139 µM) | 100 (≈ 139 µM) | > 100 | ≤ 0.05 | ≤ 0.05 | 0.1 (≈ 0.139 µM) | ≤ 0.05 | ≤ 0.05 | ≤ 0.05 | ≤ 0.05 | ≤ 0.05 | 100 (≈ 139 µM) | 50 (≈ 69.6 µM) | 1.6 (≈ 2.23 µM) | 100 (≈ 139 µM) | > 100 | 12.5 (≈ 17.4 µM) | 100 (≈ 139 µM) | MIC [6, 21]: 100 µg/mL (≈ 139 µM); MIC [9, 20]: 50 µg/mL (≈ 69.6 µM); MIC (Proteus vulgaris OX19): 25 µg/mL (≈ 34.8 µM); MIC (Serratia marcescens): 50 µg/mL (≈ 69.6 µM); MIC [19]: 50 µg/mL (≈ 69.6 µM)
4 | CCc1ccc(OCC2C=C(C)C=CC(=O)C(C)CC(CC=O)C(OC3OC(C)C(O)C(N(C)C)C3O)C(C)C(O)CC(=O)OC2CC)cc1 (stereo not drawn) | 0.4 (≈ 0.57 µM) | 0.4 (≈ 0.57 µM) | 0.4 (≈ 0.57 µM) | 25 (≈ 35.6 µM) | 25 (≈ 35.6 µM) | 0.2 (≈ 0.285 µM) | 0.1 (≈ 0.142 µM) | 0.4 (≈ 0.57 µM) | 0.1 (≈ 0.142 µM) | ≤ 0.05 | ≤ 0.05 | ≤ 0.05 | 0.4 (≈ 0.57 µM) | > 100 | > 100 | 6.3 (≈ 8.98 µM) | > 100 | > 100 | > 100 | > 100 | MIC [6, 21]: 25 µg/mL (≈ 35.6 µM); MIC [9, 20]: 12.5 µg/mL (≈ 17.8 µM); MIC (Proteus vulgaris OX19): 100 µg/mL (≈ 142 µM); MIC (Serratia marcescens): > 100 µg/mL; MIC [19]: > 100 µg/mL
5 | CCC1OC(=O)CC(O)C(C)C(OC2OC(C)C(O)C(N(C)C)C2O)C(CC=O)CC(C)C(=O)C=CC(C)=CC1COc1ccc(C)cc1 (stereo not drawn) | 0.2 (≈ 0.291 µM) | 0.2 (≈ 0.291 µM) | 0.2 (≈ 0.291 µM) | 50 (≈ 72.7 µM) | 50 (≈ 72.7 µM) | ≤ 0.05 | ≤ 0.05 | 0.1 (≈ 0.145 µM) | ≤ 0.05 | ≤ 0.05 | ≤ 0.05 | ≤ 0.05 | 0.1 (≈ 0.145 µM) | 100 (≈ 145 µM) | 50 (≈ 72.7 µM) | 6.3 (≈ 9.16 µM) | > 100 | > 100 | 50 (≈ 72.7 µM) | > 100 | MIC [6, 21]: 50 µg/mL (≈ 72.7 µM); MIC [9, 20]: 25 µg/mL (≈ 36.3 µM); MIC (Proteus vulgaris OX19): 25 µg/mL (≈ 36.3 µM); MIC (Serratia marcescens): 100 µg/mL (≈ 145 µM); MIC [19]: > 100 µg/mL
6 | CCC1OC(=O)CC(O)C(C)C(OC2OC(C)C(O)C(N(C)C)C2O)C(CC=O)CC(C)C(=O)C=CC(C)=CC1COc1cccc(N(CC)CC)c1 (stereo not drawn) | 0.8 (≈ 1.07 µM) | 0.4 (≈ 0.537 µM) | 0.4 (≈ 0.537 µM) | 25 (≈ 33.6 µM) | 50 (≈ 67.1 µM) | 0.2 (≈ 0.268 µM) | 0.1 (≈ 0.134 µM) | 0.2 (≈ 0.268 µM) | 0.1 (≈ 0.134 µM) | 0.1 (≈ 0.134 µM) | 0.1 (≈ 0.134 µM) | ≤ 0.05 | 0.2 (≈ 0.268 µM) | > 100 | > 100 | 3.1 (≈ 4.16 µM) | > 100 | > 100 | 50 (≈ 67.1 µM) | > 100 | MIC [6, 21]: 25 µg/mL (≈ 33.6 µM); MIC [9, 20]: 12.5 µg/mL (≈ 16.8 µM); MIC (Proteus vulgaris OX19): 25 µg/mL (≈ 33.6 µM); MIC (Serratia marcescens): > 100 µg/mL; MIC [19]: > 100 µg/mL
